# Results: patent US5413915A (priority 1991, dated 1995)
# Read-outs that look alike come from different tables or passages of the source.
# Experiments:
# [1] = tested on: rat liver microsomes; type: biochemical; set-up: key: Positive: the development of coloration denoted a positive response; Negative: the absence of such coloration denoted a negative response
# [2] = tested on: rat liver microsomes; type: biochemical; set-up: unit not given here
# [3] = in vivo; cited from earlier work
# [4] = tested on: rat liver microsomes; test: Colorimetric reactions of constituents in bi-layer film (Example 1); type: biochemical
# Experimental: In order to establish the color development behavior of various constituents employed in the invention alone and in several combinations, including two selected test chemicals, seven separate bi-layer film spots were prepared using an otherwise similar gelatin binder medium. The bottom layer of these spots contained reduced pararosaniline (PRA) in all instances except sample 7 wherein the oxidized PRA was substituted to illustrate the coloration of that constituent. An ascorbate salt was selected as typical of a benign test chemical, while benzo(a)pyrene was selected as a representative known carcinogen. The color behavior of the various samples was observed and identified in the following Table 3 together with the compositions of the samples tested.
# [5] = in vivo; cited from earlier work; remark: listed apart in the source
# [6] = tested on: rat liver microsomes; test: Detection of benzo(a)pyrene on bilayer spot (Example 3); type: biochemical; conditions: 0.05 mL of 0.5 mg/mL solution on spot
# Experimental: Two spots were prepared by manual streaking on a glass plate. The bottom layer of each spot consisted of 0.15 mL of a 4 mg/mL porcine 300 Bloom gelatin solution containing 1.2 mg/mL pararosaniline (PRA) reduced with solid sodium metabisulfite, spread over an area of 1100-1500 mm^2. After drying in air for two hours, the second layer, containing the following materials, was deposited. 0.05 mL of fresh rat liver microsomes containing approximately 62 mg/mL protein was added to 0.30 mL of a sodium phosphate buffer solution (pH=7.4) containing 4 mg/mL porcine 300 Bloom gelatin, and admixed with 0.02 mL of a solution containing 3 mM MgCl2, 50 mM tris(hydroxymethyl-)aminomethane buffer (pH=7.4) and 15 mM KCl. To this solution was added 10.5 mg solid reduced nicotinamide adenine dinucleotide phosphate (NADPH). 0.25 mL of this material was deposited over an area of 1300-1700 mm^2, completely covering the bottom layer, and was air dried for two hours. […] Within less than five minutes, violet color began to appear, and was well developed within twenty minutes.
# [7] = tested on: microsomes; test: Activity of microsome-containing layers after four day time lapse (Example 4); type: biochemical
# Experimental: At least five spots were prepared on a glass plate according to the procedure in Example 2 above, and dried in air. The spots were translucent but generally colorless during the first day. […] On the third day, two of the remaining spots were "recharged" by a new layer containing fresh NADPH in gelatin. After drying, both spots were essentially colorless. […] Thus, the oxidative activity of microsomes dispersed in gelatin layers persists strongly for at least three days.
# [8] = tested on: Salmonella typhimurium; conditions: cited from earlier work
# [9] = tested on: cytochrome P450IA1
# [10] = tested on: benzo(a)pyrene-induced rat liver microsomes; test: Vapor exposure of detection elements in continuous flow chamber (Example 10); type: biochemical
# Experimental: Detection elements of the present invention were prepared in the following manner. 13 mg PRA dissolved in 9.8 mL 0.1M TRISMOPS buffer (pH=7.4) and 3.2 mL ethanol, was bleached with 71 mg solid sodium sulfite. 0.05 mL Aliquots of the leuco-dye solution were plied to sheets of transparency film, and were air dried for one hour. […] After drying in air, the test spots were cut and mounted in 35 mm tissue culture dishes, then stored at -20° C. until ready for use. Detection elements were visually clear, with a slight flesh tone.
# Vapor exposures of detection elements to the carcinogen chloromethyl methyl ether (CH3 --O--CH2 Cl) were carried out at ambient temperature,pressure, and humidity conditions in a continuous flow chamber. Air, metered at a flow rate of 1 L/min, was passed through a flask containing 2.0 mL of a rapidly stirred solution of CH3 --O--CH2 Cl in ethanol. After a glass wool plug to remove entrained liquid mists, the loaded air stream entered a 10 mm diameter tube into which the detection elements were mounted, without pre-moistening, parallel to the air flow. Flow conditions were calculated to be laminar (estimated Reynolds number=150) under these conditions. Exposure was conducted for ten minutes, after which the detection elements were removed and analyzed colorimetrically by taping to the sample beam exit slit of a double-beam spectrophotometer, and scanning the absorption spectrum versus an unexposed detection element affixed to the reference beam. At one exemplary test condition, in which the initial solution concentration of CH3 --O--CH2 Cl was 1.2M, 0.4 mL of the starting solution was recovered at the end of the exposure period. Based on both material balance and Raoult's law calculations, a single value of approximately 5200 ppm was determined for the airborne concentration of CH3 --O--CH2 Cl during the exposure. […] NADPH oxidation, equivalent to 0.4 mM or approximately 20% of the total NADPH, occurred during the 10-minute exposure, but ceased thereafter. By contrast, leuco-dye oxidation continued to intensify for some 2-4 hours, to a final level of about 0.5 mM in the detection element.
# In similar experiments to FIG. 7, but in which the airborne concentration of CH3 --O--CH2 Cl was adjusted by lowering its solution concentration, color development is proportional to delivered dose, both by direct liquid administration and vapor exposure. […] For a 10-minute exposure, approximately 0.1% of the total CH3 --O--CH2 Cl in the air stream is absorbed and reacted by detection elements mounted parallel to the air flow.
# [11] = tested on: rat liver microsomes; test: Color development in detection elements with different leuco dyes (Table 2); type: biochemical; conditions: applied dose 10 μmol (formaldehyde 1 μmol); for New Color Development, NBTZ: unexposed control also Black
# Experimental: Solutions containing 0.5 mM of the respective dyes in 0.1 M TRIS buffer, pH=7.4 (except for nitro blue tetrazolium, 5.0 mM in 50% ethanolic TRIS, pH=7.4) were bleached with a few crystals of sodium sulfite or sodium dithionite, then plied in 0.02 mL aliquots as test spots on a clear sheet of transparency film. Spontaneous color development in air was noted (Table 2). Subsequently, a suspension of rat liver microsomes containing 1 mM NADPH and 1 mg/mL gelatin in 0.1 M TRIS-MOPS buffer (pH=7.7) was plied in 0.05 mL aliquots over the dried leuco-dye test spots. After drying, color development condition was noted, and the test spots saved for exposure tests to chemical substances (Table 2). Exposures were carried out by layering 0.01 mL of 0.1-1.0 M solutions of test chemical substances onto the test spots, and changes in color noted over time.
# [12] = Direct reaction of chemicals with the indicator leuco dye; conditions: without metabolic activation
# [13] = tested on: rat liver microsomes; test: Color development in detection elements with different leuco dyes (Table 2); type: biochemical
# [14] = tested on: microsomal protein; test: In vitro microsomal activation of hydrazine: leuco dye oxidation (Example 9); type: biochemical; conditions: 0.5 mM hydrazine hydrate
# Experimental: Test of leuco pararosaniline color formation and NADPH redox states, as a function of time after hydrazine addition, was conducted in vitro, and UV-visible absorbance changes monitored. All systems were aerobic (at least 0.2 mM O2). 0.03 mM Pararosaniline was reduced by addition of 0.1 mM sodium sulfite in 0.1 M 10 tris(hydroxymethyl-)aminomethane buffer (pH=7.5), and 0.3 mM NADPH with approximately 0.5 mg/mL microsomal protein (curves indicated with "+m"). At time=0, hydrazine hydrate (pH=7.5) was added to a final concentration of 0.5 mM. […] Approximately 60% of the leuco dye was oxidized (0.02 mM) during the reaction, and roughly twice that amount of […].
# [15] = midpoint redox potential; cited from earlier work
# [16] = no microsomes, no NADPH, bottom PRA-reduced (samples 5, 6)
# [17] = 10-minute vapor exposure, approximately 5200 ppm
smiles,measurement,setting,value
c1ccc2c(c1)cc1ccc3cccc4ccc2c1c34 [Benzo(a)pyrene],Invention Response,[1],Positive
same,"Detector Response, threshold dose",[2],0.01
same,Carcinogenic Status,[3],Positive
same,Tumorigen Activity,[3],+
same,COLOR REACTION,[4]; [16],No
same,COLOR REACTION,"[4]; top layer with rat liver microsomes and NADPH, bottom PRA-reduced (sample 4)",Yes
same,Teratogen Activity,[5],+
same,Time until violet color began to appear,[6],less than five
same,Time until violet color well developed,[6],twenty
same,Color developed on spot,"[7]; fourth day, NADPH-recharged spot",strong violet color
same,Color developed on spot,"[7]; fourth day, not recharged",strong violet color
same,Color developed on spot,"[7]; second day, not recharged",strong violet color
same,Color developed on spot,"[7]; third day, recharged with fresh NADPH",deep purple color
[Cd+2] [Cd(II)],"Tumorigen Activity, assignment based on IARC reports",[3],+
same,Mutagenicity,[8],+
same,Teratogen Activity,[5],+
same,"Dose-response shift, BNF-induced detection elements versus uninduced controls",[9]; compared with the shift seen for hydrazine,less significantly
COCCl [Chloromethyl methyl ether],"Detector Response, threshold dose",[2],0.1
same,Tumorigen Activity,[3],+
same,Mutagenicity,[8],+
same,Teratogen Activity,[5],+
same,NADPH oxidation in detection element,[10]; [17],0.4 mM
same,"NADPH oxidation, share of the total NADPH",[10]; [17],approximately 20%
same,Time over which leuco-dye oxidation continued to intensify,[10]; after 10-minute exposure,2 to 4 h
same,"Leuco-dye oxidation, final level in the detection element","[10]; after 10-minute exposure, approximately 5200 ppm",about 0.5 mM
C=O [Formaldehyde],Invention Response,[1],Positive
same,"Detector Response, threshold dose",[2],0.01
same,Carcinogenic Status,[3],Probable
same,Tumorigen Activity,[3],+
same,Mutagenicity,[8],-
same,"Mutagenicity, direct-acting mutagen",[8],+
same,Teratogen Activity,[5],+
same,"New Color Development, Methyl Violet leuco dye",[11],Violet
same,"New Color Development, Naphthol Blue-Black leuco dye",[11],None
same,"New Color Development, Nile Blue A leuco dye",[11],Blue
same,"New Color Development, Safranin O leuco dye",[11],None
same,"New Color Development, NBTZ",[11],Black
same,Direct reaction with the indicator leuco dye,[12],react directly with the indicator dye
NN [Hydrazine],Color of detection elements with leuco methylene blue in combination with pararosaniline,[13]; exposure to hydrazine,magenta color
same,Color of detection elements using leuco malachite green,"[13]; exposure to hydrazine solutions, separate tests",visually detectable green color
same,"Detector Response, threshold dose",[2],0.1-20
same,Tumorigen Activity,[3],+
same,Mutagenicity,[8],+
same,Teratogen Activity,[5],+
same,"New Color Development, NBTZ",[11],Black
same,"Gain of sensitivity, 50%:50% BaP-induced and uninduced microsomes versus uninduced",[9],approximately 10 fold
same,"Loss of sensitivity, BNF-induced versus uninduced microsomes",[9],20-50 fold
same,Leuco dye oxidized during the reaction,[14],0.02 mM
same,Time to asymptote of leuco-dye oxidation and NADPH reduction,[14],2.0 to 2.5 h
same,Leuco dye oxidized during the reaction,"[14]; 0.03 mM PRA, 0.3 mM NADPH, microsomes",Approximately 60%
same,Em7,[15],-0.73 V
Oc1ccccc1 [Phenol],Invention Response,[1],Positive
same,"Detector Response, threshold dose",[2],0.02
same,Carcinogenic Status,[3],Possible
same,Tumorigen Activity,[3],-
same,Teratogen Activity,[5],-
same,"Dose-response shift, BNF-induced detection elements versus uninduced controls",[9],less significantly
ClC=C(Cl)Cl [Trichloroethylene],"Detector Response, threshold dose",[2],150
same,Tumorigen Activity,[3],+
same,Mutagenicity,[8],+
same,Teratogen Activity,[5],+
same,"Dose-response shift, BNF-induced detection elements versus uninduced controls",[9],less significantly
"O=C1O[C@H]([C@@H](O)CO)C(O)=C1O [free ascorbic acid, ascorbic acid]",COLOR REACTION,[4]; [16],color reaction occurs
